We go through 22 compounds from patent publication US12516039B2, “N-linked isoquinoline amides as LRRK2 inhibitors, pharmaceutical compositions, and uses thereof” (Merck Sharp & Dohme LLC, priority 2020, dated 2026).

T1 sequence (Q5S007 970-2527 G2019S limits assumed): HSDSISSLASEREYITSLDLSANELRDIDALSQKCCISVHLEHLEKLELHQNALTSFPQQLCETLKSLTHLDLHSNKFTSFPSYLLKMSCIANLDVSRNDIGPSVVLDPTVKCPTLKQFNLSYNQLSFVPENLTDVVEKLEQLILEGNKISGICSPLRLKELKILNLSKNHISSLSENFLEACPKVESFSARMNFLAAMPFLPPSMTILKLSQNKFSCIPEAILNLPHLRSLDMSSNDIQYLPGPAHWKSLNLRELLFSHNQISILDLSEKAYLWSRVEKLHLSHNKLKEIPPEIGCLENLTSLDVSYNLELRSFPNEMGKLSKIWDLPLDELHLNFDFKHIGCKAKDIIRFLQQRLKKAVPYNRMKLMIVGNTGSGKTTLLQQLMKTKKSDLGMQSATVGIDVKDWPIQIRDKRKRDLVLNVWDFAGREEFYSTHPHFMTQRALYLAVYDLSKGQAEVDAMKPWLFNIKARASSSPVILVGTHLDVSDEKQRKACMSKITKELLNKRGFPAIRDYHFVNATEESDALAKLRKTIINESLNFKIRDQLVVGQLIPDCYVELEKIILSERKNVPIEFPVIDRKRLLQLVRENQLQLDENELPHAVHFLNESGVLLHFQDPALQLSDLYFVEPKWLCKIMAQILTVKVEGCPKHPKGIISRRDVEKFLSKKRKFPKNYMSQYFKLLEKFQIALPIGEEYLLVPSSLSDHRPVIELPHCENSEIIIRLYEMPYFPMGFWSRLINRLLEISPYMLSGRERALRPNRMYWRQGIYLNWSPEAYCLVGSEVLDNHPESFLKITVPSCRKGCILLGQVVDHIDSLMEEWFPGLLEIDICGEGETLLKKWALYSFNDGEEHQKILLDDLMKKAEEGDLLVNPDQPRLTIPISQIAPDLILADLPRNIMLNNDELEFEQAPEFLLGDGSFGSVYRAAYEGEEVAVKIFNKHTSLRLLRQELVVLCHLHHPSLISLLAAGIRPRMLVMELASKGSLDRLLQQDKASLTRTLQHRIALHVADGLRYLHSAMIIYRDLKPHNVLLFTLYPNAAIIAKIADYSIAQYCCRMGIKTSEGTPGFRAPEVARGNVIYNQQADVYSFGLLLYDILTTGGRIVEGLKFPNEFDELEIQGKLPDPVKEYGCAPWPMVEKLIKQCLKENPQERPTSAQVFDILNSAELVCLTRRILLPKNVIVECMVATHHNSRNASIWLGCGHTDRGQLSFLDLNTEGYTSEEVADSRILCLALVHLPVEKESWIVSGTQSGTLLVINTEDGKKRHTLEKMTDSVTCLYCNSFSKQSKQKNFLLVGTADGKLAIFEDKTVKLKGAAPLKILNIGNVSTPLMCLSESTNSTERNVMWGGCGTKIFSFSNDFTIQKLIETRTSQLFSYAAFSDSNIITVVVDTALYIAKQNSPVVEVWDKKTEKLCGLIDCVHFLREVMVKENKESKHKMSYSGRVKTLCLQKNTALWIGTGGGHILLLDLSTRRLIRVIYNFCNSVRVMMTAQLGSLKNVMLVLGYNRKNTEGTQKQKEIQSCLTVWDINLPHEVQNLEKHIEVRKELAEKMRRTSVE

The first assay has as its target T1, GST-tagged truncated human mutant G2019S LRRK2 (Homo sapiens, UniProt Q5S007, G2019S).
T1 construct: GST-tagged truncated human mutant G2019S LRRK2; purchased Life Technologies Corporation (Carlsbad, CA)
The experiment in a line: LRRK2 G2019S Km ATP LanthaScreen assay. Conditions: 134 μM ATP (Km ATP), LRRKtide substrate, mean of several tests. Type of assay: biochemical. In short, it runs like this:
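GST-tagged truncated human LRRK2 G2019S (1.25 nM enzyme solution) was preincubated 15 min with compound, then reacted 90 min at ambient temperature with fluorescein-LRRKtide (400 nM solution) and 134 μM ATP (Km) in Tris pH 8.5. EDTA stop; Tb anti-phospho-LRRKtide TR-FRET (520/495 ratio). IC50 from 4-parameter fits, mean of several runs.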
In general terms: In TR-FRET formats the signal depends on donor and acceptor labels being close together.
Take “(1R,2R,3R, or 1R,2S,3R, or 1S,2R,3S, or 1S,2S,3S)-N-[7-chloro-6-[4-((3R,4R or 3S,4S)-4-fluoro-3-methyl-tetrahydrofuran-3-yl)piperazin-4-ium-1-yl]-3-isoquinolyl]-2-methyl-3-(2-pyridyl)cyclopropanecarboxamide [Ex-10.71]”: the “LRRK2 pIC50” value was determined as 7.72. On the same count and under the same terms, then `O=C(Nc1cc2cc(N3CCN(C4COC4)CC3)c(Cl)cc2cn1)C1CC1` [Ex-8.1, N-(7-chloro-6-(4-(oxetan-3-yl)piperazin-1-yl)isoquinolin-3-yl)cyclopropanecarboxamide], with 7.99; and `CC1(O)CC2(CN(c3cc4cc(NC(=O)C5CC5)ncc4cc3Cl)C2)C1` [Ex-4.5], with 7.72; and `CCC1(N2CCN(c3cc4cc(NC(=O)C5CC56CCOCC6)ncc4cc3C)CC2)COCC1O` (stereo not shown) [Ex-6.12], with 9.67. The same measure, in the same setting: then “(1R,2R,3R, or 1R,2S,3R, or 1S,2R,3S, or 1S,2S,3S)-N-[7-chloro-6-[4-((3R,4R or 3S,4S)-4-fluoro-3-methyl-tetrahydrofuran-3-yl)piperazin-4-ium-1-yl]-3-isoquinolyl]-2-methyl-3-(2-pyridyl)cyclopropanecarboxamide [Ex-10.72]”, with 10.09; and `CC1(N2CCN(c3cc4cc(NC(=O)C5CCOCC5)ncc4cc3Cl)CC2)COCC1O` (stereo not shown) [Ex-9.2], with 8.74. The same measure, in the same setting: the same measure for `COCCC(=O)Nc1cc2cc(N3CCN(C4(C)COCC4O)CC3)c(Cl)cc2cn1` (stereo not shown) [Ex-9.1]: 8.12.

Staying with this assay, now noted: 134 μM ATP (Km ATP), LRRKtide substrate, mean of several tests, read-out: LRRK2 pIC50 (converted).
Turning to `Cn1ncc(C2CC2C(=O)Nc2cc3cc(N4CCN(C5(C)CCOC5)CC4)c(Cl)cc3cn2)c1C(F)(F)F` (single isomer, unassigned) [Ex-10.27, (1R,2R or 1S,2S)-N-[7-chloro-6-[4-((R or S)-3-methyltetrahydrofuran-3-yl)piperazin-4-ium-1-yl]-3-isoquinolyl]-2-[1-methyl-5-(trifluoromethyl)pyrazol-4-yl]cyclopropanecarboxamide], the IC50 is 38 nM.

Turning to `C[C@H]1CN(c2cc3cc(NC(=O)C4CC45CCOCC5)ncc3cc2Cl)CCN1C1COCC1O` (single isomer, unassigned) [Ex-2.3, (R or S)-N-{7-chloro-6-[(3S or 3R)-4-(3R,4R or 3S,4S)-4-hydroxyoxolan-3-yl)-3-methylpiperazin-1-yl]isoquinolin-3-yl}-6-oxaspiro[2.5]octane-1-carboxamide], the IC50 is 17.4 nM. As for `Cn1ncc(C2CC2C(=O)Nc2cc3cc(N4CCN(C5(C)COCC5O)CC4)c(Cl)cc3cn2)n1` (single isomer, unassigned) [Ex-16.1, (1S,2R or 1S,2S)-N-(N-(7-chloro-6-(4-(4-hydroxy-3-methyltetrahydrofuran-3-yl)piperazin-1-yl)isoquinolin-3-yl)-2-(2-methyl-2H-1,2,3-triazol-4-yl)cyclopropane-1-carboxamide], the IC50 was 0.145 nM.

For the compound `CC1(N2CCN(c3cc4cc(NC(=O)C5CC56CCOCC6)ncc4cc3Cl)CC2)CCOC1` (single isomer, unassigned) [Ex-5.12], the IC50 was 126 nM. The same measure, in the same setting: the same measure for `CC1(C)CC(C(=O)Nc2cc3cc(N4CCN(C5(C)COCC5O)CC4)c(Cl)cc3cn2)CO1` (single isomer, unassigned) [Ex-1.22, (R or S)-N-(7-chloro-6-(4-((3R,4R or 3S,4S)-4-hydroxy-3-methyltetrahydrofuran-3-yl)piperazin-1-yl)isoquinolin-3-yl)-5,5-dimethyltetrahydrofuran-3-carboxamide]: 1.17 nM; for `CC1(C#N)CCN(c2cc3cc(NC(=O)C4CC4c4cncnc4)ncc3cc2Cl)CC1` (single isomer, unassigned) [Ex-5.16]: 427 nM; for `CC1(N2CCN(c3cc4cc(NC(=O)C5CC56CCC6)ncc4cc3Cl)CC2)COCC1O` (single isomer, unassigned) [Ex-1.8, (1R or 1S)-N-(7-chloro-6-(4-((3R,4R or 3S,4S)-4-hydroxy-3-methyltetrahydrofuran-3-yl)piperazin-1-yl)isoquinolin-3-yl)spiro[2.3]hexane-1-carboxamide]: 2.34 nM. Still for that read-out and setting: the same measure for `Cc1cc2cnc(NC(=O)C3CC34CCOCC4)cc2cc1N1CCN(C2(C)COCC2O)C[C@@H]1C` (single isomer, unassigned) [Ex-15.1, (R or S)-N-(6-((2R or 2S)-4-(4-(3R,4R or 3S,4S)-hydroxy-3-methyltetrahydrofuran-3-yl)-2-methylpiperazin-1-yl)-7-methylisoquinolin-3-yl)-6-oxaspiro[2.5]octane-1-carboxamide]: 4.68 nM; for `CC1(N2CCN(c3cc4cc(NC(=O)C5CC56CCOCC6)ncc4cc3Cl)CC2)COCC1O` (single isomer, unassigned) [Ex-2.2, (R or S)-N-(7-chloro-6-(4-((3R,4R or 3S,4S)-4-hydroxy-3-methyltetrahydrofuran-3-yl)piperazin-1-yl)isoquinolin-3-yl)-6-oxaspiro[2.5]octane-1-carboxamide]: 3.63 nM; for `CC1C(C(=O)Nc2cc3cc(N4CCN(C5(C)CCOC5)CC4)c(Cl)cc3cn2)C1c1cnn(C)c1` (single isomer, unassigned) [Ex-9.9]: 0.417 nM. The same measure, in the same setting: the same measure for `CC1(N2CCN(c3cc4cc(NC(=O)C5CC56CCOCC6)ncc4cc3Cl)CC2)CCOC1` (single isomer, unassigned) [Ex-5.13]: 83.2 nM; for `CC1(C2CCOC2)CC1C(=O)Nc1cc2cc(N3CCN(C4(C)COCC4O)CC3)c(Cl)cc2cn1` (single isomer, unassigned) [Ex-10.83, (1R,2R or 1S,2S, or 1R,2S, or 1S,2R)-N-[7-chloro-6-[4-((3R,4R or 3S,4S)-4-hydroxy-3-methyl-tetrahydrofuran-3-yl)piperazin-1-yl]-3-isoquinolyl]-2-methyl-2-tetrahydrofuran-3-yl-cyclopropanecarboxamide]: 0.525 nM; for `CC1(N2CCN(c3cc4cc(NC(=O)C5CC56CCOC6)ncc4cc3Cl)CC2)COCC1O` (single isomer, unassigned) [Ex-2.11, (1R,3R or 1S,3S)-N-(7-chloro-6-(4-((3R,4R or 3S,4S)-4-hydroxy-3-methyltetrahydrofuran-3-yl)piperazin-1-yl)isoquinolin-3-yl)-5-oxaspiro[2.4]heptane-1-carboxamide]: 1.45 nM. For `CC1(N2CCN(c3cc4cc(NC(=O)C5CC56CC6)ncc4cc3Cl)CC2)COCC1O` (single isomer, unassigned) [Ex-2.13, (R or S)-N-(7-chloro-6-(4-((3R,4R or 3S,4S)-4-hydroxy-3-methyltetrahydrofuran-3-yl)piperazin-1-yl)isoquinolin-3-yl)spiro[2.2]pentane-1-carboxamide], the IC50 is 33.9 nM. Same read-out and setting: the same measure for `CC(C)n1nccc1C1CC1C(=O)Nc1cc2cc(N3CCN(C4(C)COCC4O)CC3)c(Cl)cc2cn1` (single isomer, unassigned) [Ex-10.21, (1R,2R or 1S,2S)-N-[7-chloro-6-[4-((3R,4R or 3S,4S)-4-hydroxy-3-methyl-tetrahydrofuran-3-yl)piperazin-1-yl]-3-isoquinolyl]-2-(2-isopropylpyrazol-3-yl)cyclopropanecarboxamide]: 44.7 nM.
